Legend:
[1] = Transscleral iontophoretic delivery to retina/choroid (LC/MS/MS); type: in vivo, New Zealand white rabbits; conditions: for Enhancement: 20 min vs passive 0 mA; for Amount CA4P Delivered / Amount CA4 Delivered / Total Combretastatin Delivered: retina/choroid, mean ± SD; for Amount CA4P Delivered / Amount CA4 Delivered: CA4P 10 mg/ml; for Amount CA4 Delivered: extrapolated beyond quantification range
Method: CA4P is ionizable at physiological pH and therefore is amenable to iontophoretic delivery. The effectiveness of transcleral iontophoretic delivery of CA4P was evaluated using an ocular rabbit ophthalmic applicator (IOMED Inc.,.Salt Lake City, Utah) composed of an 180 ul silicone receptacle shell backed with silver chloride-coated silver foil current distribution component, a connector lead wire, and a single layer of hydrogel-impregnated polyvinyl acetal matrix to which CA4P (10 mg/ml) was administered. The contact surface area of the applicator was 0.54 cm^2. […] Direct current anodal iontophoresis was performed with each applicator at 2,3,and 4 mA for 20 min using an Phoresor II™ PM 700 (IOMED Inc., Salt Lake City, Utah) power supply. Passive iontophoresis (0 mA for 20 min) was used as a control. Following treatment, the animals were euthanized, and eyes were enucleated 30 minutes post-treatment, rinsed with tap water, and frozen at −70 C. Retina and choirodal tissue was dissected from these sample.
CA4P, CA, and the internal standard Diethylstilbestrol (Sigma Chemical Company) were quantified from approximately 100 mg of tissue using chromatography tandem mass spectrometry (“LC/MS/MS”) method. An aliquot of methonal extraction was injected onto a SCIEX APIO 3000 LC/MS/MS apparatus equipped with an HPLC colum. Peak area of the m/z 315→285 product ion of CA43 and m/z 395→79 product ion of CA4P were measured against the peak area of the m/z 267→237 product ion of the internal standard. Quantitation was performed using weighted (1/x) linear least squares regression analyses generated from fortified calibration standards prepared immediately prior to each run. […] These levels represent a several thousand-fold excess over what is considered to be a therapeutically relevant concentration for inhibiting tubulin binding (2-3 uM).

[2] = Biodistribution of 14C-CA4P following topical administration of a gel; type: in vivo, New Zealand rabbits
Method: ^14C-CA4P (OXiGENE Inc., Watertown, Mass.) was resuspended in 100 ul volume of saline solution and injected with a 30 G needle into the right eyes of anesthesized male New Zealand rabbits (4 months old, 1.8-2.5 kg, n=3 per sample). Three different concentrations of ^14C-CA4P were tested (1, 10, 100 mg/ml) corresponding to doses of 1, 5, and 5 uCi of applied radioactivity respectively. A blank control group was also included. Rabbits were anaesthetized at 1, 6, 24, and 48 hours for blood sampling. After blood collection, the animals were euthanized by Phenobarbital injection and the treated right eyes were removed from all test animals. Ocular tissue samples were dissected from the cornea, aqueous humor, vitreous humor, choroid, or retina, placed in 20-mi glass scintillation vials, vortexed, and incubated for 24 hrs with 500 ul digesting fluid. Plasma was separated from whole blood by centrifugation (1,800 g for 10 minutes). Both ocular tissue samples and plasma were incubated at room temperature with 16 ml of Hionic Fluor™ scintillation fluid for a period of 24 hours prior to radioactivity counting. Each sample was counted for 5 minutes in a Betamatic V counter (Bio-Tek Kontron Instruments, St Quentin en Yvelines, France). The conversion of counts per minute (“cpm”) into disintegrations per minute (“dpm”) was performed automatically by the beta-counter, using calibration curves obtained from ^14C-standards and quenching curves from the respective blank matrices spiked with ^14C-standards. The concentration of drug was determined according to nanogram equivalents of CA4P (ng-Eq/g of tissue) which was calculated from the measured dpm value, the weight of the tissue specimen, and the specific activity of the drug (0.37 mCi/mg), followed by subtraction of the corresponding background value from control eye tissue. A tissue concentration of 1 uM CA4P is equal to […] tissue.
Topical gels and solutions were developed for use as topical formulation suitable for the topical delivery of CA4P to the surface of the eye. Topical solutions (1, 3, and 10%) was directly prepared in 0.9% NaCl (Aguettant, Lyon, France) and sterilized with 0.2 um filter (pH 6.4 to 8.5, osmolarity 290 to 459 mosmol/kg H2O. Low viscosity topical gels (1,3,and 10%) were prepared in 0.5% carboxymethylcellulose (Sigma Aldrich Chimie, St. Quentin Fallavier Cedex, France) with 0.9% NaCl. The physicochemical specifications of each gel are listed in Table 5
Topical formulations were applied to the surface of right eyes at an applied dose of 5 uCi in a volume of 50 ul. Cornea was sampled instead of sclera. Samples were taken at […] and 24 hours.

COc1ccc(/C=C\c2cc(OC)c(OC)c(OC)c2)cc1OP(=O)([O-])[O-].[Na+].[Na+] [CA4P, combretastatin A4 disodium phosphate]
Enhancement ([1]; 2 mA): 17 | Enhancement ([1]; 3 mA): 16 | Enhancement ([1]; 4 mA): 15 | Enhancement of delivery of total combretastatin to choroid and retina by iontophoresis ([1]; iontophoresis vs passive delivery): approximately 15 fold | Amount CA4P Delivered ([1]; 0 mA, 20 min (passive)): <0.4 ng | Amount CA4 Delivered ([1]; 0 mA, 20 min (passive)): 57 ± 37 ng | Total Combretastatin Delivered ([1]; 0 mA, 20 min (passive)): 1.6 ± 1.0 nmol/g | Amount CA4P Delivered ([1]; 2 mA, 20 min): 1.4 ± 0.5 ng | Amount CA4 Delivered ([1]; 2 mA, 20 min): 910 ± 630 ng | Total Combretastatin Delivered ([1]; 2 mA, 20 min): 27 ± 15 nmol/g | Amount CA4P Delivered ([1]; 3 mA, 20 min): 3.8 ± 1.5 ng | Amount CA4 Delivered ([1]; 3 mA, 20 min): 710 ± 450 ng | Total Combretastatin Delivered ([1]; 3 mA, 20 min): 25 ± 17 nmol/g | Amount CA4P Delivered ([1]; 4 mA, 20 min): 7.2 ± 6.3 ng | Amount CA4 Delivered ([1]; 4 mA, 20 min): 670 ± 440 ng | Total Combretastatin Delivered ([1]; 4 mA, 20 min): 24 ± 10 nmol/g | Cmax ([2]; aqueous humor, 1% topical gel): 2.4 µM | Cmax ([2]; aqueous humor, 3% topical gel): 8.2 µM | Cmax ([2]; aqueous humor, 10% topical gel): 13 µM | Cmax ([2]; choroid, 1% topical gel): 2.8 µM | Cmax ([2]; choroid, 3% topical gel): 10.7 µM | Cmax ([2]; choroid, 10% topical gel): 22.5 µM | Concentration of drug delivered ([2]; cornea, retina and choroid, all three gel formulations): > 1 µM | Cmax ([2]; cornea, 1% topical gel, 50 ul): 82 µM | Cmax ([2]; cornea, 3% topical gel, 50 ul): 118 µM | Cmax ([2]; cornea, 10% topical gel, 50 ul): 292 µM | Cmax ([2]; plasma, 1% topical gel): 0.09 µM | Cmax ([2]; plasma, 3% topical gel): 0.56 µM | Cmax ([2]; plasma, 10% topical gel): 1.63 µM | Cmax ([2]; retina, 1% topical gel): 1 µM | Cmax ([2]; retina, 3% topical gel): 5.8 µM | Cmax ([2]; retina, 10% topical gel): 5.8 µM | Time of highest concentrations of drug in the eye ([2]; topical gel): within the first hour
